Measurements reported in US12172995B2, “Substituted indole and indazole compounds” (BRISTOL-MYERS SQUIBB COMPANY, priority 2018, dated 2024).

Columns and labels:
Type in all cases: cell-based
[1] = target: T1, human TLR7 (Homo sapiens, UniProt Q9NYK1); assay: TLR7 inhibition reporter assay (HEK-Blue SEAP); settings: HEK-Blue cells overexpressing human TLR7, stimulated with gardiquimod 7.5 μM, 22 hour incubation
T1 construct: host or cells: HEK-Blue cells
T1 sequence (Q9NYK1 27-1049): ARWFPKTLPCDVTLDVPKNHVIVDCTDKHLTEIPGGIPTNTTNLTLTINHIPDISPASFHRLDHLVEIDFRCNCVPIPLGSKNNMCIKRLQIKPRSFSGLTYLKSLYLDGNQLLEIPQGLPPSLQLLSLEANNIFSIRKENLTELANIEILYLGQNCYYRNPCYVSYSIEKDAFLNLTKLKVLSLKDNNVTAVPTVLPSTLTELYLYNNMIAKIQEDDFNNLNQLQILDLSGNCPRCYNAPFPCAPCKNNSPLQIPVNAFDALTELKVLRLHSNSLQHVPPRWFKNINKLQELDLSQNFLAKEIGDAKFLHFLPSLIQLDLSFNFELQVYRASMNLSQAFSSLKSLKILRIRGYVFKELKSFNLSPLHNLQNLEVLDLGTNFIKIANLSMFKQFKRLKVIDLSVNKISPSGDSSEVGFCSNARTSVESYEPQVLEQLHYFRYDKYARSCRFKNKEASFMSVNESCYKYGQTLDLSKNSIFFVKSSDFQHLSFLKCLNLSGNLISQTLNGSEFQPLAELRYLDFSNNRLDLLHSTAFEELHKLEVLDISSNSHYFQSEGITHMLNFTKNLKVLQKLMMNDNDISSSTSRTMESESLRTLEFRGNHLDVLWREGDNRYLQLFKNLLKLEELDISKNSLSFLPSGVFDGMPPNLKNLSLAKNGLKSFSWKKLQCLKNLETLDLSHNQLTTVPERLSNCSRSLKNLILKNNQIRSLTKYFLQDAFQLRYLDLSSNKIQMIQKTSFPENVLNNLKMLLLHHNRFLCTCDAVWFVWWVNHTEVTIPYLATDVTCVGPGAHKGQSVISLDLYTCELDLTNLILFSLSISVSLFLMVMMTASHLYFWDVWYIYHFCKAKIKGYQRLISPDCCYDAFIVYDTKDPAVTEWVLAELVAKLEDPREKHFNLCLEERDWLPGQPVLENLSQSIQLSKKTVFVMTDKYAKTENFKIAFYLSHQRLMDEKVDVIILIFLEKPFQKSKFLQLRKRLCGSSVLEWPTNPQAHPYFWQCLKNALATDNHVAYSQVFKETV
Procedure, shortened: (§1)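 Percent inhibition reflects SEAP reduction after 22 h at 37° C, relative to agonist-plus-DMSO and known-inhibitor controls. Compounds (0.05 nM to 50 μM) were added 30 min before agonist: TLR9 cells received ODN2006 5 nM, TLR8 cells R848 15.9 μM, TLR7 cells gardiquimod 7.5 μM; human receptor-expressing HEK-Blue reporter lines.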

[2] = target: T2, human TLR9 (Homo sapiens, UniProt Q9NR96); assay: TLR9 inhibition reporter assay (HEK-Blue SEAP); settings: HEK-Blue cells overexpressing human TLR9, stimulated with ODN2006 5 nM, 22 hour incubation
T2 construct: host or cells: HEK-Blue cells
T2 sequence (Q9NR96 26-1032): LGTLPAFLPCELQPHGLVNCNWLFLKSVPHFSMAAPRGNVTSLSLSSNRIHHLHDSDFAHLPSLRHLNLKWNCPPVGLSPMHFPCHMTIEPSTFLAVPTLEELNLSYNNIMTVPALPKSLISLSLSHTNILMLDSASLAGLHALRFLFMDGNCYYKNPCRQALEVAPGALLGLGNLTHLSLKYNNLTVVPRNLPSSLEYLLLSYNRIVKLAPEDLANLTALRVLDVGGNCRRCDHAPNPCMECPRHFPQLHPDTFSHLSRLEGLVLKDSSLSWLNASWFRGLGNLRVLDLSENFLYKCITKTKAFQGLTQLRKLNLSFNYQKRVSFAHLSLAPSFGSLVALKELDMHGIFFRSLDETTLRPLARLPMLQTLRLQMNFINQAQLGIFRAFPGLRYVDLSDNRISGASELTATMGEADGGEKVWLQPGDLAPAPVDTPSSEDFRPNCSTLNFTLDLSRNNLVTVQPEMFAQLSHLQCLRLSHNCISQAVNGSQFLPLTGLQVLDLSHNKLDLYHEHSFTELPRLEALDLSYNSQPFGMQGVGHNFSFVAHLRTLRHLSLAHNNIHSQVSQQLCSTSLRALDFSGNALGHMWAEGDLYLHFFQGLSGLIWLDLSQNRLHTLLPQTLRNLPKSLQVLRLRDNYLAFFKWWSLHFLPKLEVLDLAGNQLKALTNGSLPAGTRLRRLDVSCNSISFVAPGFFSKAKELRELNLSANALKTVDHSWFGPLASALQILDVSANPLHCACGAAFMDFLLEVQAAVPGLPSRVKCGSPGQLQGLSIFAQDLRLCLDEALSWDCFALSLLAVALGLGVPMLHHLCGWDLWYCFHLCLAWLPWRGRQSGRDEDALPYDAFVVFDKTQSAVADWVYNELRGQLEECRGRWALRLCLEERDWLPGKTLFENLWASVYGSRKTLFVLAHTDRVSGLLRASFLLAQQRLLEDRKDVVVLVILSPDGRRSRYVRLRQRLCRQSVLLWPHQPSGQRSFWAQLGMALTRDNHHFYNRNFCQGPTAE
Procedure, shortened: as §1

[3] = target: T3, human TLR8 (Homo sapiens, UniProt Q9NR97); assay: TLR8 inhibition reporter assay (HEK-Blue SEAP); settings: HEK-Blue cells overexpressing human TLR8, stimulated with R848 15.9 μM, 22 hour incubation
T3 construct: host or cells: HEK-Blue cells
T3 sequence (Q9NR97 27-1041): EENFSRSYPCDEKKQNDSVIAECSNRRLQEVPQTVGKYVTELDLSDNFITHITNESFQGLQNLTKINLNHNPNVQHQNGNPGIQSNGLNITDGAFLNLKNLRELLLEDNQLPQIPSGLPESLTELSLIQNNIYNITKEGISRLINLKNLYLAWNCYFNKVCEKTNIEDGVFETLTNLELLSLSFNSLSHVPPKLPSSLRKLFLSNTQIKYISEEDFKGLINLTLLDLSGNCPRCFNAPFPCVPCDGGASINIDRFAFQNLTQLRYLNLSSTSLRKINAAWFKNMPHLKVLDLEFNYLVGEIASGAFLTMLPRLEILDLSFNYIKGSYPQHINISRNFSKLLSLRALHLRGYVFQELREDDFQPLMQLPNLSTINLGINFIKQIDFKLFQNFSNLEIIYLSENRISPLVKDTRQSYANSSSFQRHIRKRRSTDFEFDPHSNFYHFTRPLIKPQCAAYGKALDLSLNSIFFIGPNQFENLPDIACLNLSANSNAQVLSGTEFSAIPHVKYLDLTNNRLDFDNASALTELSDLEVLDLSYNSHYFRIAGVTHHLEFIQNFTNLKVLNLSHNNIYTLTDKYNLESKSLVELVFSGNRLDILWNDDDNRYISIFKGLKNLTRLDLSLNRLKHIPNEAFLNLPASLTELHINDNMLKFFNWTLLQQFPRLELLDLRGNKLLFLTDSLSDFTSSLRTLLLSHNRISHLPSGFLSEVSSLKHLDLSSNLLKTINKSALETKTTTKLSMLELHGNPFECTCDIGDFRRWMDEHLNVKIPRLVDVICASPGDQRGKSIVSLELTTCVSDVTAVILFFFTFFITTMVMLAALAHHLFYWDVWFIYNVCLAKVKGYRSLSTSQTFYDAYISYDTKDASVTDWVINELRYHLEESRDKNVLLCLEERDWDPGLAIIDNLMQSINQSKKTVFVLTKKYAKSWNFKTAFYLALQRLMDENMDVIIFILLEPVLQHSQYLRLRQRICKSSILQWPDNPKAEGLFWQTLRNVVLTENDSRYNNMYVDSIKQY
Procedure, shortened: as §1

IC50 [1]	IC50 [2]	IC50 [3]	Structure (SMILES)
8.2 nM	24100 nM	0.36 nM	Cc1cc(-c2cc3[nH]nc(C4CCC(N5CCC(S(C)(=O)=O)C5)CC4)c3cc2C(C)C)cn2ncnc12 (single isomer, unassigned) [Example 212, 6-(5-isopropyl-3-(4-(3-(methylsulfonyl)pyrrolidin-1-yl)cyclohexyl)-1H-indazol-6-yl)-8-methyl-[1,2,4]triazolo[1,5-a]pyridine]
1690 nM	605 nM	269 nM	Cc1cc(-c2ccc3c(CCNC4CCNCC4)c[nH]c3c2)cn2ncnc12 [Example 13, N-(2-(6-(8-methyl-[1,2,4]triazolo[1,5-a]pyridin-6-yl)-1H-indol-3-yl)ethyl)piperidin-4-amine]
3.3 nM	1420 nM	35.2 nM	Cc1cc(-c2cc(C)c3ncnn3c2)cc2[nH]cc(C3CCNCC3)c12 [Example 16, 8-methyl-6-(4-methyl-3-(piperidin-4-yl)-1H-indol-6-yl)-[1,2,4]triazolo[1,5-a]pyridine]
388 nM	3190 nM	328 nM	Cc1cc(-c2ccc3c(C4CCNCC4)n[nH]c3c2)cn2ncnc12 [Example 17, 8-methyl-6-(3-(piperidin-4-yl)-1H-indazol-6-yl)-[1,2,4]triazolo[1,5-a]pyridine]
12.9 nM	1500 nM	3.3 nM	Cc1cc2c(C3CCNCC3)n[nH]c2cc1-c1cc(C)c2ncnn2c1 [Example 18, 8-methyl-6-(5-methyl-3-(piperidin-4-yl)-1H-indazol-6-yl)-[1,2,4]triazolo[1,5-a]pyridine]
31.8 nM	1780 nM	11.2 nM	COc1cc2c(C3CCNCC3)n[nH]c2cc1-c1cc(C)c2ncnn2c1 [Example 19, 6-(5-methoxy-3-(piperidin-4-yl)-1H-indazol-6-yl)-8-methyl-[1,2,4]triazolo[1,5-a]pyridine]
24.6 nM	4420 nM	3.8 nM	Cc1cc2c(C3CCN(C(=O)CN(C)C)CC3)n[nH]c2cc1-c1cc(C)c2ncnn2c1 [Example 20, 2-(dimethylamino)-1-(4-(5-methyl-6-(8-methyl-[1,2,4]triazolo[1,5-a]pyridin-6-yl)-1H-indazol-3-yl)piperidin-1-yl)ethan-1-one]

Continued, molecule first:

Structure (SMILES)	IC50 [1]	IC50 [2]	IC50 [3]
Cc1cc2c(C3CCNCC3)c[nH]c2cc1-c1cc(C)c2ncnn2c1 [Example 1, 8-methyl-6-(5-methyl-3-(piperidin-4-yl)-1H-indol-6-yl)-[1,2,4]triazolo[1,5-a]pyridine]	4.1 nM	657 nM	3.9 nM
Cc1cc(-c2cc(C)c3ncnn3c2)cc2[nH]cc(C3CCNCC3)c12 [Example 2, 8-methyl-6-(4-methyl-3-(piperidin-4-yl)-1H-indol-6-yl)-[1,2,4]triazolo[1,5-a]pyridine]	0.9 nM	1040 nM	19.9 nM
Cc1cc(-c2cc(C)c3ncnn3c2)cc2[nH]nc(C3CCCN(C(=O)CN(C)C)C3)c12 (stereo not drawn) [Example 5, 2-(dimethylamino)-1-(3-(4-methyl-6-(8-methyl-[1,2,4]triazolo[1,5-a]pyridin-6-yl)-1H-indazol-3-yl)piperidin-1-yl)ethan-1-one]	4.9 nM	1560 nM	13.5 nM
CCc1cc(-c2cc(C)c3ncnn3c2)cc2[nH]nc(C3CCN(CC(=O)N(C)C)CC3)c12 [Example 8, 2-(4-(4-ethyl-6-(8-methyl-[1,2,4]triazolo[1,5-a]pyridin-6-yl)-1H-indazol-3-yl)piperidin-1-yl)-N,N-dimethylacetamide]	4 nM	6070 nM	4.5 nM
CCCN1CCC(c2n[nH]c3cc(-c4cc(C)c5ncnn5c4)c(C(C)C)cc23)CC1 [Example 9, 6-(5-isopropyl-3-(1-propylpiperidin-4-yl)-1H-indazol-6-yl)-8-methyl-[1,2,4]triazolo[1,5-a] pyridine]	0.5 nM	6200 nM	0.1 nM
Cc1cc2c(CC3CCNCC3)n[nH]c2cc1-c1cc(C)c2ncnn2c1 [Example 10, 8-methyl-6-(5-methyl-3-(piperidin-4-ylmethyl)-1H-indazol-6-yl)-[1,2,4]triazolo[1,5-a]pyridine]	68.9 nM	1010 nM	3.8 nM
COc1cc(-c2ccc3c(C4CCNCC4)c[nH]c3c2)cn2ncnc12 [Example 11, 8-methoxy-6-(3-(piperidin-4-yl)-1H-indol-6-yl)-[1,2,4]triazolo[1,5-a]pyridine]	64.4 nM	363 nM	245 nM
Cc1cc(-c2ccc3c(C4CCNCC4)c[nH]c3c2)cn2ncnc12 [Example 12, 8-methyl-6-(3-(piperidin-4-yl)-1H-indol-6-yl)-[1,2,4]triazolo[1,5-a]pyridine]	16.9 nM	192 nM	31.2 nM
